PubChem BioAssay (NCI)
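Assay format: 96-well plates, 48-hour exposure. At the TGI there is no net growth.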

What was measured:
Experiment in all cases: growth of human tumour cells (NCI), 48 h
[1] = tested on: 786-0 renal
[2] = tested on: A498 renal
[3] = tested on: A549 NSCLC
[4] = tested on: ACHN renal
[5] = tested on: CCRF-CEM leukemia
[6] = tested on: COLO 205 colon
[7] = tested on: DLD-1 colon
[8] = tested on: DMS 114 small cell lung
[9] = tested on: DMS 273 small cell lung
[10] = tested on: EKVX NSCLC
[11] = tested on: HCT-116 colon
[12] = tested on: HCT-15 colon
[13] = tested on: HL-60(TB) leukemia
[14] = tested on: HOP-18 NSCLC
[15] = tested on: HOP-62 NSCLC
[16] = tested on: HOP-92 NSCLC
[17] = tested on: HT29 colon
[18] = tested on: IGROV1 ovarian
[19] = tested on: K-562 leukemia
[20] = tested on: KM12 colon
[21] = tested on: KM20L2 colon
[22] = tested on: LOX IMVI melanoma
[23] = tested on: LXFL 529 NSCLC
[24] = tested on: M14 melanoma
[25] = tested on: M19-MEL melanoma
[26] = tested on: MOLT-4 leukemia
[27] = tested on: NCI-H226 lung
[28] = tested on: NCI-H23 lung
[29] = tested on: NCI-H460 lung
[30] = tested on: NCI-H522 lung
[31] = tested on: OVCAR-4 ovarian
[32] = tested on: OVCAR-5 ovarian
[33] = tested on: OVCAR-8 ovarian
[34] = tested on: RPMI-8226 leukemia
[35] = tested on: RXF 393 renal
[36] = tested on: SF-268 CNS
[37] = tested on: SF-295 CNS
[38] = tested on: SF-539 CNS
[39] = tested on: SK-MEL-28 melanoma
[40] = tested on: SK-MEL-5 melanoma
[41] = tested on: SN12C renal
[42] = tested on: SNB-19 CNS
[43] = tested on: SNB-75 CNS
[44] = tested on: SNB-78 CNS
[45] = tested on: SR leukemia
[46] = tested on: SW-620 colon
[47] = tested on: U251 CNS
[48] = tested on: UACC-257 melanoma
[49] = tested on: UACC-62 melanoma
[50] = tested on: CAKI-1 renal
[51] = tested on: HCC-2998 colon
[52] = tested on: MALME-3M melanoma
[53] = tested on: OVCAR-3 ovarian
[54] = tested on: SK-MEL-2 melanoma
[55] = tested on: SK-OV-3 ovarian
[56] = tested on: UO-31 renal
[57] = tested on: TK-10 renal
[58] = tested on: XF 498 CNS

COc1ccc([N-]/C(=N\n2c(=O)c(C)nn(C)c2=S)N(c2ccc(OC)cc2)c2nn3c(=O)c(C)n[n+](C)c3s2)cc1
TGI [1]: > 100 µM | TGI [2]: > 100 µM | TGI [3]: > 100 µM | TGI [4]: > 100 µM | TGI [5]: > 100 µM | TGI [6]: > 100 µM | TGI [7]: > 100 µM | TGI [8]: > 100 µM | TGI [9]: > 100 µM | TGI [10]: > 100 µM | TGI [11]: > 100 µM | TGI [12]: > 100 µM | TGI [13]: > 100 µM | TGI [14]: > 100 µM | TGI [15]: > 100 µM | TGI [16]: > 100 µM | TGI [17]: > 100 µM | TGI [18]: > 100 µM | TGI [19]: > 100 µM | TGI [20]: > 100 µM | TGI [21]: > 100 µM | TGI [22]: > 100 µM | TGI [23]: > 100 µM | TGI [24]: > 100 µM | TGI [25]: > 100 µM | TGI [26]: > 100 µM | TGI [27]: > 100 µM | TGI [28]: > 100 µM | TGI [29]: > 100 µM | TGI [30]: > 100 µM | TGI [31]: > 100 µM | TGI [32]: > 100 µM | TGI [33]: > 100 µM | TGI [34]: > 100 µM | TGI [35]: > 100 µM | TGI [36]: > 100 µM | TGI [37]: > 100 µM | TGI [38]: > 100 µM | TGI [39]: > 100 µM | TGI [40]: > 100 µM | TGI [41]: > 100 µM | TGI [42]: > 100 µM | TGI [43]: > 100 µM | TGI [44]: > 100 µM | TGI [45]: > 100 µM | TGI [46]: > 100 µM | TGI [47]: > 100 µM | TGI [48]: > 100 µM | TGI [49]: > 100 µM

CC(C)c1cccc(C(C)C)c1NC(=O)C(=O)C(C(=O)c1ccc2ccccc2c1)C1OC(=O)c2ccccc21 (stereo unspecified)
TGI [1]: > 100 µM | TGI [2]: > 100 µM | TGI [3]: > 100 µM | TGI [4]: > 100 µM | TGI [50]: > 100 µM | TGI [5]: > 100 µM | TGI [6]: > 100 µM | TGI [7]: > 100 µM | TGI [8]: > 100 µM | TGI [10]: > 100 µM | TGI [51]: > 100 µM | TGI [11]: > 100 µM | TGI [12]: > 100 µM | TGI [15]: > 100 µM | TGI [16]: > 100 µM | TGI [17]: > 100 µM | TGI [18]: > 100 µM | TGI [19]: > 100 µM | TGI [20]: > 100 µM | TGI [22]: > 100 µM | TGI [23]: > 100 µM | TGI [24]: > 100 µM | TGI [25]: > 100 µM | TGI [52]: > 100 µM | TGI [26]: > 100 µM | TGI [27]: 81.5 µM | TGI [28]: > 100 µM | TGI [29]: > 100 µM | TGI [30]: > 100 µM | TGI [53]: > 100 µM | TGI [31]: > 100 µM | TGI [32]: > 100 µM | TGI [34]: > 100 µM | TGI [35]: > 100 µM | TGI [36]: > 100 µM | TGI [37]: > 100 µM | TGI [38]: > 100 µM | TGI [54]: > 100 µM | TGI [39]: > 100 µM | TGI [40]: > 100 µM | TGI [55]: > 100 µM | TGI [41]: > 100 µM | TGI [42]: > 100 µM | TGI [44]: > 100 µM | TGI [45]: > 100 µM | TGI [46]: > 100 µM | TGI [47]: > 100 µM | TGI [48]: > 100 µM | TGI [49]: > 100 µM | TGI [56]: > 100 µM

COc1ccc(/C=N/NC(=O)NCCCN(C)C)cc1
TGI [2]: > 100 µM | TGI [3]: > 100 µM | TGI [4]: > 100 µM | TGI [5]: > 100 µM | TGI [7]: > 100 µM | TGI [8]: > 100 µM | TGI [9]: > 100 µM | TGI [11]: > 100 µM | TGI [12]: > 100 µM | TGI [13]: > 100 µM | TGI [14]: > 100 µM | TGI [17]: > 100 µM | TGI [18]: > 100 µM | TGI [19]: > 100 µM | TGI [20]: > 100 µM | TGI [22]: > 100 µM | TGI [52]: > 100 µM | TGI [26]: > 100 µM | TGI [27]: > 100 µM | TGI [28]: > 100 µM | TGI [29]: > 100 µM | TGI [30]: > 100 µM | TGI [53]: > 100 µM | TGI [33]: > 100 µM | TGI [35]: > 100 µM | TGI [36]: > 100 µM | TGI [37]: > 100 µM | TGI [38]: > 100 µM | TGI [54]: > 100 µM | TGI [39]: > 100 µM | TGI [40]: > 100 µM | TGI [55]: > 100 µM | TGI [41]: > 100 µM | TGI [42]: > 100 µM | TGI [44]: > 100 µM | TGI [46]: > 100 µM | TGI [57]: > 100 µM | TGI [47]: > 100 µM | TGI [48]: > 100 µM | TGI [49]: > 100 µM | TGI [56]: > 100 µM | TGI [58]: > 100 µM
